Measurements from patent US8877748B2, “Heterocyclic fused anthraquinone derivatives, manufacturing method and pharmaceutical composition using thereof” (National Defense Medical Center, priority 2012, dated 2014).
“And” between values parts separate entries of the source, which are not always exact repeats. Identical values can stand only once.

Columns and labels:
[1] = tested on: PC-3 prostate cancer cell line; assay: SRB assay cell viability, PC-3 prostate cancer cell line; assay type: cell-based, human; settings: Homo sapiens, PC-3 prostate cancer cell line, Table II prints no unit, μM printed, read-out: SRB assay: 50% inhibition of cancer cell proliferation of sample concentration (IC50) of PC-3 prostate cancer cell line
CCRF-CEM = assay: NCI screening platform one-dose single concentration screening, leukemia CCRF-CEM; assay type: cell-based, human; settings: 10 μM
HL-60, TB = assay: NCI one-dose screening, leukemia HL-60, TB; assay type: cell-based, human; settings: 10 μM
MOLT-4 = assay: NCI one-dose screening, leukemia MOLT-4; assay type: cell-based, human; settings: 10 μM
SR = assay: NCI one-dose screening, leukemia SR; assay type: cell-based, human; settings: 10 μM
PRMI-8226 cell line = assay: NCI one-dose screening, leukemia PRMI-8226; assay type: cell-based, human; settings: 10 μM
K562cell line = assay: NCI one-dose screening, leukemia K562; assay type: cell-based, human; settings: 10 μM
HOP-62 = assay: NCI one-dose screening, non-small cell lung cancer HOP-62; assay type: cell-based, human; settings: 10 μM
HOP-92 = assay: NCI one-dose screening, non-small cell lung cancer HOP-92; assay type: cell-based, human; settings: 10 μM
NCI-H226 = assay: NCI one-dose screening, non-small cell lung cancer NCI-H226; assay type: cell-based, human; settings: 10 μM
NCI-H23 = assay: NCI one-dose screening, non-small cell lung cancer NCI-H23; assay type: cell-based, human; settings: 10 μM
NCI-H322M = assay: NCI one-dose screening, non-small cell lung cancer NCI-H322M; assay type: cell-based, human; settings: 10 μM; Non-small cell lung cancer
NCI-H460 = assay: NCI one-dose screening, non-small cell lung cancer NCI-H460; assay type: cell-based, human; settings: 10 μM
NCI-H522 = assay: NCI one-dose screening, non-small cell lung cancer NCI-H522; assay type: cell-based, human; settings: 10 μM
A549/ATCC = assay: NCI one-dose screening, non-small cell lung cancer A549/ATCC; assay type: cell-based, human; settings: 10 μM
COLO 205 = assay: NCI one-dose screening, colon cancer COLO 205; assay type: cell-based, human; settings: 10 μM
HCC-2998 = assay: NCI one-dose screening, colon cancer HCC-2998; assay type: cell-based, human; settings: 10 μM
HCT-116 = assay: NCI one-dose screening, colon cancer HCT-116; assay type: cell-based, human; settings: 10 μM
HCT-15 = assay: NCI one-dose screening, colon cancer HCT-15; assay type: cell-based, human; settings: 10 μM
KM12 = assay: NCI one-dose screening, colon cancer KM12; assay type: cell-based, human; settings: 10 μM
SF-268 = assay: NCI one-dose screening, CNS cancer SF-268; assay type: cell-based, human; settings: 10 μM
SF-295 = assay: NCI one-dose screening, CNS cancer SF-295; assay type: cell-based, human; settings: 10 μM
SF-539 = assay: NCI one-dose screening, CNS cancer SF-539; assay type: cell-based, human; settings: 10 μM
SNB-19 = assay: NCI one-dose screening, CNS cancer SNB-19; assay type: cell-based, human; settings: 10 μM
SNB-75 = assay: NCI one-dose screening, CNS cancer SNB-75; assay type: cell-based, human; settings: 10 μM
U251 = assay: NCI one-dose screening, CNS cancer U251; assay type: cell-based, human; settings: 10 μM
LOX IMVI = assay: NCI one-dose screening, melanoma LOX IMVI; assay type: cell-based, human; settings: 10 μM
MALME-3M = assay: NCI one-dose screening, melanoma MALME-3M; assay type: cell-based, human; settings: 10 μM
M14 = assay: NCI one-dose screening, melanoma M14; assay type: cell-based, human; settings: 10 μM
UACC-62 = assay: NCI one-dose screening, melanoma UACC-62; assay type: cell-based, human; settings: 10 μM
UACC-257 = assay: NCI one-dose screening, melanoma UACC-257; assay type: cell-based, human; settings: 10 μM
SK-MEL-2 = assay: NCI one-dose screening, melanoma SK-MEL-2; assay type: cell-based, human; settings: 10 μM
SK-MEL-28 = assay: NCI one-dose screening, melanoma SK-MEL-28; assay type: cell-based, human; settings: 10 μM
IGROV1 = assay: NCI one-dose screening, ovarian cancer IGROV1; assay type: cell-based, human; settings: 10 μM
OVCAR-3 = assay: NCI one-dose screening, ovarian cancer OVCAR-3; assay type: cell-based, human; settings: 10 μM
OVCAR-4 = assay: NCI one-dose screening, ovarian cancer OVCAR-4; assay type: cell-based, human; settings: 10 μM
OVCAR-8 = assay: NCI one-dose screening, ovarian cancer OVCAR-8; assay type: cell-based, human; settings: 10 μM
SK-OV-3 = assay: NCI one-dose screening, ovarian cancer SK-OV-3; assay type: cell-based, human; settings: 10 μM
786-O = assay: NCI one-dose screening, renal cancer 786-O; assay type: cell-based, human; settings: 10 μM
CAKI-1 = assay: NCI one-dose screening, renal cancer CAKI-1; assay type: cell-based, human; settings: 10 μM
[2] = NCI one-dose screening, renal cancer A489; assay type: cell-based, human; settings: 10 μM
SN12C = assay: NCI one-dose screening, renal cancer SN12C; assay type: cell-based, human; settings: 10 μM
TK-10 = assay: NCI one-dose screening, renal cancer TK-10; assay type: cell-based, human; settings: 10 μM
UO-31 = assay: NCI one-dose screening, renal cancer UO-31; assay type: cell-based, human; settings: 10 μM
RXF, 393 = assay: NCI one-dose screening, renal cancer RXF, 393; assay type: cell-based, human; settings: 10 μM
DU145 = assay: NCI one-dose screening, prostate cancer DU145; assay type: cell-based, human; settings: 10 μM
PC-3 = assay: NCI one-dose screening, prostate cancer PC-3; assay type: cell-based, human; settings: 10 μM
MCF7 = assay: NCI one-dose screening, breast cancer MCF7; assay type: cell-based, human; settings: 10 μM
HS 578-T = assay: NCI one-dose screening, breast cancer HS 578-T; assay type: cell-based, human; settings: 10 μM; Breast cancer
MDA-MB-231/ATCC = assay: NCI one-dose screening, breast cancer MDA-MB-231/ATCC; assay type: cell-based, human; settings: 10 μM
MDA-MB-468 = assay: NCI one-dose screening, breast cancer MDA-MB-468; assay type: cell-based, human; settings: 10 μM
NCl/ADR-RES = assay: NCI one-dose screening, breast cancer NCl/ADR-RES; assay type: cell-based, human; settings: 10 μM; listed under Ovarian cancer
BT-549 = assay: NCI one-dose screening, breast cancer BT-549; assay type: cell-based, human; settings: 10 μM
T-47D = assay: NCI one-dose screening, breast cancer T-47D; assay type: cell-based, human; settings: 10 μM
MDA, -MB-435 = assay: NCI one-dose screening, breast cancer MDA, -MB-435; assay type: cell-based, human; settings: 10 μM; listed under Melanoma
human tumor cell lines = assay: NCI one-dose screening, Mean / Delta / Range of growth percent over all tested cell lines; assay type: cell-based; settings: 10 μM
HT29 = assay: NCI one-dose screening, colon cancer HT29; assay type: cell-based, human; settings: 10 μM
SK-MEL-5 = assay: NCI one-dose screening, melanoma SK-MEL-5; assay type: cell-based, human; settings: 10 μM
OVCAR-5 = assay: NCI one-dose screening, ovarian cancer OVCAR-5; assay type: cell-based, human; settings: 10 μM
ACHN = assay: NCI one-dose screening, renal cancer ACHN; assay type: cell-based, human; settings: 10 μM

## Cc1ccc(C)c(Sc2cc3c(c4nsnc24)C(=O)c2ccccc2C3=O)c1 [C20, 4-(2,5-dimethyl-phenyl-thio)anthra[2,1-c] [1,2,5]thiadiazol-6,11-dione]
[1]
  IC50: 7.44 µM
other
  melting point: 243 to 244 °C

## O=C1c2ccccc2C(=O)c2c1cc(Sc1ccc(Cl)cc1)c1nsnc21 [C22, 4-(4-chloro-phenylthio)anthra[2,1-c] [1,2,5]thiadiazol-6,11-dione]
[1]
  IC50: > 15 µM
CCRF-CEM
  Growth Percent CCRF-CEM: 79.34%
HL-60, TB
  Growth Percent HL-60(TB): 87.34%
MOLT-4
  Growth Percent MOLT-4: 59.21%
SR
  Growth Percent SR: 110.89%
PRMI-8226 cell line
  Growth Percent RPMI-8226: 90.15%
K562cell line
  Growth Percent K562: 94.91%
HOP-62
  Growth Percent HOP-62: 94.80%
HOP-92
  Growth Percent HOP-92: 101.98%
NCI-H226
  Growth Percent NCI-H226: 94.77% and 93.41%
NCI-H23
  Growth Percent NCI-H23: 104.26%
NCI-H322M
  Growth Percent NCI-H322M: 100.11%
NCI-H460
  Growth Percent NCI-H460: 99.52%
NCI-H522
  Growth Percent NCI-H522: 102.62%
A549/ATCC
  Growth Percent A549/ATCC: 103.88%
COLO 205
  Growth Percent COLO 205: 121.41%
HCC-2998
  Growth Percent HCC-2998: 106.82%
HCT-116
  Growth Percent HCT-116: 98.25%
HCT-15
  Growth Percent HCT-15: 98.10%
KM12
  Growth Percent KM12: 101.50%
SF-268
  Growth Percent SF-268: 104.55%
SF-295
  Growth Percent SF-295: 97.26%
SF-539
  Growth Percent SF-539: 107.00%
SNB-19
  Growth Percent SNB-19: 105.18%
SNB-75
  Growth Percent SNB-75: 91.73%
U251
  Growth Percent U251: 103.69%
LOX IMVI
  Growth Percent LOX IMVI: 83.24%
MALME-3M
  Growth Percent MALME-3M: 105.10%
M14
  Growth Percent M14: 105.44%
UACC-62
  Growth Percent UACC-62: 90.65%
UACC-257
  Growth Percent UACC-257: 95.45%
SK-MEL-2
  Growth Percent SK-MEL-2: 109.49%
SK-MEL-28
  Growth Percent SK-MEL-28: 130.48%
IGROV1
  Growth Percent IGROV1: 84.93%
OVCAR-3
  Growth Percent OVCAR-3: 118.64%
OVCAR-4
  Growth Percent OVCAR-4: 76.82%
OVCAR-8
  Growth Percent OVCAR-8: 88.60%
SK-OV-3
  Growth Percent SK-OV-3: 108.96%
786-O
  Growth Percent 786-0: 108.70%
CAKI-1
  Growth Percent CAKI-1: 86.97%
[2]
  Growth Percent A498: 93.03%
SN12C
  Growth Percent SN12C: 86.95%
TK-10
  Growth Percent TK-10: 139.80%
UO-31
  Growth Percent UO-31: 79.46%
RXF, 393
  Growth Percent RXF 393: 117.52%
DU145
  Growth Percent DU145: 117.15%
PC-3
  Growth Percent PC-3: 86.94%
MCF7
  Growth Percent MCF7: 86.11%
HS 578-T
  Growth Percent HS 578T: 103.37%
MDA-MB-231/ATCC
  Growth Percent MDA-MB-231/ATCC: 89.05%
MDA-MB-468
  Growth Percent MDA-MB-468: 46.13%
NCl/ADR-RES
  Growth Percent NCI/ADR-RES: 102.42%
BT-549
  Growth Percent BT-549: 98.88%
T-47D
  Growth Percent T-47D: 85.04%
MDA, -MB-435
  Growth Percent MDA-MB-435: 106.67%
Human tumor cell lines; delta over all cell lines
  Growth Percent Delta: 51.95%
Human tumor cell lines; mean over all cell lines
  Growth Percent Mean: 98.08%
Human tumor cell lines; range over all cell lines
  Growth Percent Range: 93.67%

## O=C1c2ccccc2C(=O)c2c1cc(SCc1ccc(Cl)cc1)c1nsnc21 [C56, 4-(4-chloro-benzylthio)anthra[2,1-c] [1,2,5]thiadiazol-6,11-dione]
[1]
  IC50: > 15 µM
HL-60, TB
  Growth Percent HL-60(TB): 57.42%
MOLT-4
  Growth Percent MOLT-4: 22.72%
SR
  Growth Percent SR: 63.73%
PRMI-8226 cell line
  Growth Percent RPMI-8226: 86.78%
K562cell line
  Growth Percent K562: 67.53%
HOP-62
  Growth Percent HOP-62: 89.15%
NCI-H226
  Growth Percent NCI-H226: 82.14%
NCI-H23
  Growth Percent NCI-H23: 82.13%
NCI-H322M
  Growth Percent NCI-H322M: 94.10%
NCI-H460
  Growth Percent NCI-H460: 104.55%
NCI-H522
  Growth Percent NCI-H522: 82.61%
A549/ATCC
  Growth Percent A549/ATCC: 100.62%
COLO 205
  Growth Percent COLO 205: 99.94%
HCC-2998
  Growth Percent HCC-2998: 102.54%
HCT-116
  Growth Percent HCT-116: 114.73%
HCT-15
  Growth Percent HCT-15: 97.91%
KM12
  Growth Percent KM12: 105.46%
HT29
  Growth Percent HT29: 96.41%
SF-268
  Growth Percent SF-268: 107.19%
SF-539
  Growth Percent SF-539: 97.95%
SNB-19
  Growth Percent SNB-19: 104.30%
SNB-75
  Growth Percent SNB-75: 63.35%
U251
  Growth Percent U251: 94.44%
LOX IMVI
  Growth Percent LOX IMVI: 86.69%
MALME-3M
  Growth Percent MALME-3M: 86.38%
M14
  Growth Percent M14: 126.40%
UACC-62
  Growth Percent UACC-62: 101.52%
UACC-257
  Growth Percent UACC-257: 78.70%
SK-MEL-2
  Growth Percent SK-MEL-2: 109.63%
SK-MEL-28
  Growth Percent SK-MEL-28: 95.35%
SK-MEL-5
  Growth Percent SK-MEL-5: 89.57%
IGROV1
  Growth Percent IGROV1: 84.25%
OVCAR-3
  Growth Percent OVCAR-3: 113.46%
OVCAR-4
  Growth Percent OVCAR-4: 84.19%
OVCAR-5
  Growth Percent OVCAR-5: 104.48%
OVCAR-8
  Growth Percent OVCAR-8: 94.19%
786-O
  Growth Percent 786-0: 117.98%
ACHN
  Growth Percent ACHN: 94.35%
SN12C
  Growth Percent SN12C: 93.61%
TK-10
  Growth Percent TK-10: 121.91%
RXF, 393
  Growth Percent RXF 393: 104.79%
NCl/ADR-RES
  Growth Percent NCI/ADR-RES: 95.73%
other
  melting point: 261 to 262 °C

## CC(C)(C)c1ccc(CSc2cc3c(c4nsnc24)C(=O)c2ccccc2C3=O)cc1 [C57, 4-(4-tert-butylbenzylthio)anthra[2,1-c] [1,2,5]thiadiazol-6,11-dione]
[1]
  IC50: 7.47 µM
other
  melting point: 256 to 257 °C
